Data published in US10301292B2, “Bicyclic compound” (Takeda Pharmaceutical Company Limited, priority 2014, dated 2019).

Tests used:
human ACC1 = molecular target: T1, human ACC1 (Homo sapiens, UniProt Q13085); experiment: Measurement of ACC1 inhibitory activity (Malonyl-CoA production, RapidFire-mass spectrometry); type: biochemical; conditions: 10 μM of the test compound, recombinant human ACC1; for inhibition at 10 µM: read-out: ACC1 inhibitory rate (%) at 10 μM
T1 construct: His tag (from vector pFAST-BacHTc; protein captured on Ni-NTA) (N); made in house; host or cells: SF-9 insect cells, recombinant baculovirus BAC-ACC1
Protocol: (1) Cloning of Human ACC1 Gene and Preparation of Recombinant Baculovirus
Human ACC1 gene was cloned by PCR using a human liver cDNA library (Clontech) as a template and Primer 1 and Primer 2 shown below. Primer 1 and Primer 2 were prepared by adding SalI, NotI restriction enzyme recognition sequences based on the information of the base sequence of human ACC1 gene (Genbank Accession U19822).
PCR was performed using Pyrobest DNA polymerase (TAKARA BIO INC.). The obtained PCR product was cloned to pT7 Blue vector (Novagen) and after confirmation of the base sequence, digested with restriction enzymes SalI and XbaI. The obtained DNA fragment was inserted into pFAST-BacHTc (Invitrogen) digested with restriction enzymes SalI and XbaI to give expression plasmid ACC1/pFAST-BacHTc.
Using the expression plasmid ACC1/pFAST-BacHTc and BAC-TO-BAC Baculovirus Expression System (Invitrogen), virus stock BAC-ACC1 of recombinant Baculovirus was prepared.
(2) Preparation of ACC1 Protein
SF-9 cells (Invitrogen) were inoculated to a medium (10 L) for insect cells (Sf-900IISFM medium (Invitrogen) containing 5% fetal bovine serum (Trace), 50 mg/L Gentamicin (Wako Pure Chemical Industries, Ltd.), 0.1% Pluronic F-68 (Invitrogen)) at 1.0×10^6 cells/mL, and cultured with shaking in Wave Bioreactor (GE Healthcare) at 27° C., 20 rpm, rocking angle 10°, oxygen concentration 30%.
On day 2 of the culture, recombinant Baculovirus BAC-ACC1 was added, and the cells were cultured for 3 days. The culture medium was centrifuged at 4000×g for 10 min to give virus-infected cells. The cells were washed with phosphate buffered saline (Invitrogen) and centrifuged under the same conditions. The obtained cells were cryopreserved at −80° C.
The cryopreserved cells were thawed in ice and suspended in 800 mL of 25 mM HEPES buffer (pH 7.5) containing 10% Glycerol, 0.3 M NaCl, 1 mM EDTA, 25 mM Sodium β-Glycerophosphate and 1 mM Sodium Orthovanadate, and supplemented with Complete Protease Inhibitor (Roche). The obtained suspension was homogenized two times in a polytron homogenizer (Kinematica) at 20,000 rpm for 20 sec. The obtained cell disruption solution was clarified by centrifugation at 186,000×g for 60 min and the supernatant was passed through Ni-NTA Superflow Cartridges (5 mL) (QUIAGEN). Furthermore, it was washed with 25 mM HEPES buffer (pH 7.5) containing 20 mM Imidazole, 0.3 M NaCl, and eluted with 25 mM HEPES buffer (pH 7.5) containing 250 mM Imidazol, 0.3 M NaCl. The eluate was concentrated by Amicon Ultra-15 (Nihon Millipore K.K.) having a fraction molecular weight of 50K. The obtained concentrate was subjected to gel filtration with 50 mM HEPES buffer (pH 7.5) containing 10 mM MgCl2, 2 mM dithiothreitol, 10 mM tripotassium citrate, 0.3 M NaCl by using HiLoad 26/60 Superdex200 prep grade gel filtration column (GE Healthcare) to give ACC1. The obtained ACC1 was cryopreserved at −80° C.
(3) Measurement of ACC1 Inhibitory Activity
ACC1 obtained in the above-mentioned (2) was diluted with an enzyme reaction buffer (50 mM HEPES (pH 7.5), 10 mM MgCl2, 10 mM Tripottasium Citrate, 2 mM Dithiothreitol, 0.001% Fatty acid free BSA) to a concentration of 0.2 μg/ml, and the mixture was added to each well of a 384 well assay plate by 10 μl. A test compound dissolved in dimethyl sulfoxide (DMSO) was diluted with an enzyme reaction buffer and the resulting solution (5 μl) was added to each well. The mixture was incubated at room temperature for 60 min. Then, a substrate solution (50 mM KHCO3, 200 μM ATP, 200 μM Acetyl-CoA, 5 μl) was added to each well, and the mixture was reacted at room temperature for 30 min. The reaction was quenched by adding a reaction quenching liquid (1.3% formic acid, 0.2 μM Malonyl-^13C3-CoA) by 60 μL each to the obtained reaction mixtures (test compound addition group).
In addition, a reaction was performed in the same manner as above and without adding the test compound (test compound non-addition group). […]

HCT116 cells = experiment: Growth inhibitory activity on HCT116 cell (CellTiter-Glo); type: cell-based; conditions: table head: 10 μM (text b2498: 1 μM), 3 days incubation; for inhibition at 10 µM: Homo sapiens, HCT-116, 72 h, read-out: HCT116 cell proliferation inhibitory rate (%) at 10 μM
Protocol: The growth inhibitory activity of the compound on HCT116 cell was evaluated by the following method.
HCT116 cells were seeded in a 384 well blackplate at 900 cells/30 μL/well, and maintained in an RPMI medium (Wako)) containing an assay medium (2% fetal bovine serum, 50 Unit/mL penicillin, 50 μg/mL streptomycin (Invitrogen). The next day, a test compound dissolved in dimethyl sulfoxide (DMSO) was diluted with the assay medium, and the obtained compound solution was added by 10 μL to each well of a plate containing HCT116 cells and incubated at 37° C., 5% CO2 (test compound addition group).
A similar reaction was performed without adding a test compound (test compound non-addition group).
Furthermore, a similar reaction was performed under the conditions without adding HCT116 cell and a test compound (control group).
After 3 days, 20 μL of a CellTiter-Glo reagent (Promega KK) was added to the well, and the mixture was stirred for 10 min. Thereafter, the luminescence value of each well was measured by the EnVision™ multilabel counter (Perkin Elmer Inc.).
The HCT116 cell proliferation inhibitory rate (%) of the test compound was determined by the following calculation formula. (1−(luminescence of test compound addition group−luminescence of control group)÷(luminescence of test compound nonaddition group−luminescence of control group))×100

| SMILES | inhibition at 10 µM (human ACC1) [%] | ACC1 inhibitory rate (%) at 10 μM (human ACC1) [%] | ACC1 inhibitory rate (%) at 10 μM (human ACC1; 10 µM) [%] | inhibition at 10 µM (HCT116 cells) [%] | HCT116 cell proliferation inhibitory rate (%) at 10 μM (HCT116 cells) [%] |
| --- | --- | --- | --- | --- | --- |
| CC(=O)NC(C)c1ccc2nc(-c3ccc(Oc4cccc(OCC5CC5)c4)cc3)oc2c1F (centres unmarked) [Example 90, N-(1-(2-(4-(3-(cyclopropylmethoxy)phenoxy)phenyl)-7-fluoro-1,3-benzoxazol-6-yl)ethyl)acetamide] | 101 | – | – | 22 | – |
| CC(=O)NC(C)c1ccc2nc(-c3ccc(Oc4cccc(OCC5CC5)c4)cc3)oc2n1 (centres unmarked) [Example 104, N-(1-(2-(4-(3-(cyclopropylmethoxy)phenoxy)phenyl)[1,3]oxazolo[5,4-b]pyridin-5-yl)ethyl)acetamide] | 98 | – | – | 30 | – |
| CCCCOc1cccc(Oc2ccc(-c3nc4ccc(C(C)NC(C)=O)cc4o3)nc2)c1 (centres unmarked) [Example 13, N-(1-(2-(5-(3-butoxyphenoxy)pyridin-2-yl)-1,3-benzoxazol-6-yl)ethyl)acetamide] | 86 | – | – | 19 | – |
| CC(=O)NC(C)c1ccc2nc(-c3ccc(Oc4cc(OCC5CC5)ccn4)cc3)oc2c1 (centres unmarked) [Example 82, N-(1-(2-(4-((4-(cyclopropylmethoxy)pyridin-2-yl)oxy)phenyl)-1,3-benzoxazol-6-yl)ethyl)acetamide] | 98 | – | – | 40 | – |
| C[C@H](NC(N)=O)c1ccc2nc(-c3ccc(Oc4cccc(OCC5CC5)c4)nc3)oc2c1 [Example 98b, 1-((1S)-1-(2-(6-(3-(cyclopropylmethoxy)phenoxy)pyridin-3-yl)-1,3-benzoxazol-6-yl)ethyl)urea] | 98 | – | – | 47 | – |
| CC(=O)NC(C)C1CCc2nc(-c3ccc(Oc4cccc(OCC5CC5)c4)cc3)oc2C1 (centres unmarked) [Example 95, N-(1-(2-(4-(3-(cyclopropylmethoxy)phenoxy)phenyl)-4,5,6,7-tetrahydro-1,3-benzoxazol-6-yl)ethyl)acetamide] | 97 | – | – | 11 | – |
| CC(NC(N)=O)c1ccc2nc(-c3ccc(Oc4cccc(OCC5CC5)c4)nc3)oc2c1F (centres unmarked) [Example 108, 1-(1-(2-(6-(3-(cyclopropylmethoxy)phenoxy)pyridin-3-yl)-7-fluoro-1,3-benzoxazol-6-yl)ethyl)urea] | 100 | – | – | 36 | – |
| CCCCn1cc(Oc2ccc(-c3nc4ccc(C(C)NC(C)=O)cc4o3)cn2)ccc1=O (centres unmarked) [Example 105, N-(1-(2-(6-((1-butyl-6-oxo-1,6-dihydropyridin-3-yl)oxy)pyridin-3-yl)-1,3-benzoxazol-6-yl)ethyl)acetamide] | 96 | – | – | 46 | – |

Now from value to compound, other results behind:

| inhibition at 10 µM (human ACC1) [%] | ACC1 inhibitory rate (%) at 10 μM (human ACC1) [%] | ACC1 inhibitory rate (%) at 10 μM (human ACC1; 10 µM) [%] | SMILES | inhibition at 10 µM (HCT116 cells) [%] | HCT116 cell proliferation inhibitory rate (%) at 10 μM (HCT116 cells) [%] |
| --- | --- | --- | --- | --- | --- |
| 99 | – | – | CC(=O)NC(C)c1ccc2nc(-c3ccc(Oc4cccc(OCC5CC5)c4)cn3)oc2c1 (centres unmarked) [Example 9, N-(1-(2-(5-(3-(cyclopropylmethoxy)phenoxy)pyridin-2-yl)-1,3-benzoxazol-6-yl)ethyl)acetamide] | 45 | – |
| – | 99 | – | CC(=O)NC(C)c1ccc2nc(-c3ccc(Oc4cccc(OCC5CC5)c4)cn3)oc2c1 (centres unmarked) [Example 9b, N-(1-(2-(5-(3-(cyclopropylmethoxy)phenoxy)pyridin-2-yl)-1,3-benzoxazol-6-yl)ethyl)acetamide] | – | 29 |
| 98 | – | – | COC(=O)NC(C)c1ccc2nc(-c3ccc(Oc4cccc(OCC5CC5)c4)nc3)oc2c1 (centres unmarked) [Example 99, methyl (1-(2-(6-(3-(cyclopropylmethoxy)phenoxy)pyridin-3-yl)-1,3-benzoxazol-6-yl)ethyl)carbamate] | 26 | – |
| 94 | – | – | CC(=O)NC(C)c1ccc2sc(-c3ccc(Oc4cccc(OCC5CC5)c4)nc3)nc2c1 (centres unmarked) [Example 75, N-(1-(2-(6-(3-(cyclopropylmethoxy)phenoxy)pyridin-3-yl)-1,3-benzothiazol-5-yl)ethyl)acetamide] | 40 | – |
| 101 | – | – | CC(=O)NC(C)c1ccc2nc(-c3ccc(Oc4cccc(OCC5CC5)c4)nc3)oc2c1 (centres unmarked) [Example 37, N-(1-(2-(6-(3-(cyclopropylmethoxy)phenoxy)pyridin-3-yl)-1,3-benzoxazol-6-yl)ethyl)acetamide] | 44 | – |
| 92 | – | – | CC(=O)NC(C)c1ccc2nc(-c3cnc(Oc4cccc(OCC5CC5)c4)cc3C)oc2c1 (centres unmarked) [Example 97, N-(1-(2-(6-(3-(cyclopropylmethoxy)phenoxy)-4-methylpyridin-3-yl)-1,3-benzoxazol-6-yl)ethyl)acetamide] | 22 | – |
| 97 | – | – | CC(=O)NC(C)c1ccc2cc(-c3ccc(Oc4cccc(OCC5CC5)c4)nc3)oc2c1 (centres unmarked) [Example 67, N-(1-(2-(6-(3-(cyclopropylmethoxy)phenoxy)pyridin-3-yl)-1-benzofuran-6-yl)ethyl)acetamide] | 38 | – |
| 95 | – | – | CC(=O)NC(C)c1ccc2nc(-c3ccc(Oc4cccc(OCC5CC5)c4)cc3)oc2c1 (centres unmarked) [Example 8, N-(1-(2-(4-(3-(cyclopropylmethoxy)phenoxy)phenyl)-1,3-benzoxazol-6-yl)ethyl)acetamide] | 42 | – |
| 100 | – | – | CC(=O)NC(C)c1ccc2nc(-c3ccc(Oc4cccc(OCC5CC5)c4)nn3)oc2c1 (centres unmarked) [Example 96, N-(1-(2-(6-(3-(cyclopropylmethoxy)phenoxy)pyridazin-3-yl)-1,3-benzoxazol-6-yl)ethyl)acetamide] | 23 | – |
| – | – | 96 | CC(=O)NC(C)c1ccc2nc(N3CC(Oc4cccc(OCC5CC5)c4)C3)oc2c1 (centres unmarked) [Example 1b, N-(1-(2-(3-(3-(cyclopropylmethoxy)phenoxy)azetidin-1-yl)-1,3-benzoxazol-6-yl)ethyl)acetamide] | – | 32 |
| 100 | – | – | CC(=O)NC(C)c1ccc2sc(N3CC(Oc4cccc(OCC5CC5)c4)C3)nc2c1 (centres unmarked) [Example 44, N-(1-(2-(3-(3-(cyclopropylmethoxy)phenoxy)azetidin-1-yl)-1,3-benzothiazol-5-yl)ethyl)acetamide] | 14 | – |
